Reference: patent US20180344715A1, “WNT/BETA-CATENIN SIGNAL TRANSDUCTION INHIBITORS AND THEIR USE IN TREATMENT OR PREVENTION OF DISEASES AND CONDITIONS LINKED WITH SAID TRANSDUCTION” (BERGEN TEKNOLOGIOVERFORING AS, priority 2015, published 2018)

Test system: SW480-7TGC cells
Assay: Wnt ACD assay
Assay type: cell-based
Conditions: 5 μM; never found in control cells
From the text: Unequal Wnt signaling was considered when paired cells had intensity ratio higher than 2.

CNC(=O)c1ccccc1Sc1ccc2c(/C=C/c3ccccn3)n[nH]c2c1 [axitinib, N-Methyl-2-[[3-[(E)-2-pyridin-2-ylethenyl]-1H-indazol-6-yl]sulfanyl]benzamide]
paired cells with unequal TCF-GFP expression (Wnt ACD): up to 10%
